Laboratory results from patent US20240383913A1, “THIOPHENE RING COMPOUND, PREPARATION METHOD THEREFOR AND APPLICATION THEREOF” (CENTER FOR EXCELLENCE IN MOLECULAR CELL SCIENCE, CHINESE …, priority 2021, published 2024).
pEC50, pKi: −log10 of the molar value.

Columns and labels:
[1] = system: restraint-induced depression-like behaviors; experiment: Forced swimming test after 5-hour restraint; assay type: in vivo, C57B6 male mice
Method: The experimental animals were C57B6 male mice, n=8 in each group. 5-hour restraint were used to develop depression-like behavioral representations of the mice, then the effects of the compounds on their “depression-like” behaviors were measured according to behavioral performance in tail suspension test and forced swimming test. The specific experimental procedures were as follows: Firstly, the mice were restrained using a mouse fixator for tail vein injection. During the restraint process, all movement abilities of the mice were restricted under the condition of introducing minimal pain to the mice. Compounds were administered intraperitoneally twice, before and after restraint, respectively. After compound administration, the mice returned to the cage to recover for 30 minutes. […]
Forced swimming test: the mice were placed in a 5 L glass beaker filled with water, with the water level at 15 cm height, and the mice were forced to swim continuously in the beaker for 6 minutes. […] The duration of the immobility behavior was recorded intermittently for the remaining 4 minutes, and the immobility behavior of the mice was defined as: the mice float passively on the surface of the water without movement, with only small local movements required to maintain afloat. The duration of this immobility was measured to assess the level of behavioral despair in the mice. […]

[2] = target: 5-HT1A receptor (Homo sapiens (Human), UniProt P08908); experiment: Affinity for 5-HT1A receptors, radioligand competition with [3H]-LSD; assay type: binding; details: 293T membrane transiently expressing 5-HT1A; [3H]-LSD; read-out: 5-HT1A affinity Ki;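 also: membranes from cells transiently transfected with 5-HT1A receptor, bound [3H]-LSD displaced by compound at 10^-9 to 10^-5 M, 2 h incubation at room temperature in the dark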
[3] = target: dopamine D2 receptors (Homo sapiens (Human), UniProt P14416); experiment: Dopamine D2 receptor β-arrestin2 BRET (recruitment); assay type: cell-based; details: D2 receptor, β-arrestin2 pathway;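 also: cells co-expressing Rluc-fused D2 receptor, GRK2 and GFP2-fused β-arrestin2, BRET read with coelenterazine 400a after adding drug over a concentration series, in duplicate wells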
Chain of dopamine D2 receptors (P14416 whole entry, the tested form may be a part): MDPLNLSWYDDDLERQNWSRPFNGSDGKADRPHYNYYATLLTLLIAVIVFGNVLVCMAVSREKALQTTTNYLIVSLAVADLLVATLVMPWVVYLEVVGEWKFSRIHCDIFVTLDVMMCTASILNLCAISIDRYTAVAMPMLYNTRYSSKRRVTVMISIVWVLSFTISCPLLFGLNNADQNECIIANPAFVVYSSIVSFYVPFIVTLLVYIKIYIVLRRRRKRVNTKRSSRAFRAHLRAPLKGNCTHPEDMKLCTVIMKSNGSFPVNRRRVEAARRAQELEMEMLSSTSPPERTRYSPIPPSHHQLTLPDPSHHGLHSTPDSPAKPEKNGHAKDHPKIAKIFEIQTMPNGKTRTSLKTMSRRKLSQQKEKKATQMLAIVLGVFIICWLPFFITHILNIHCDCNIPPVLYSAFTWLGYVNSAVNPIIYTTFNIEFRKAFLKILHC
Method: To examine the downstream G protein signaling pathway mediated by dopamine D2 receptors, on the first day, a 6 cm culture dish was used for transfection with 1 μg of dopamine D2 receptors, 1 μg of Gαi1 containing a C-terminal seaweed luciferase (Gαi1-Rluc), 1 μg of Gβ3, 1 μg of Gγ9 containing C-terminal green fluorescent protein (Gγ9-GFP), and 16 μL of PEI. At the same time, in order to examine the downstream β-arrestin2 signaling pathway mediated by dopamine D2 receptors, on the first day, a 6 cm culture dish was used for transfection with 500 μg of dopamine D2 receptors containing C-terminal seaweed luciferase (D2-Rluc), 500 μg of G protein-coupled receptor kinase 2 (GRK2), 2500 μg of β-arrestin2 containing N-terminal green fluorescent protein (GFP2-ARRB2) mixed with 14 μL of PEI. The next day, the confluent cells of a 6 cm culture dish were digested and reseeded into a 96-well plate with 100 μL of culture medium added to each well. On the third day, the drugs were added for test. The 96-well plate was taken out from the cell incubator to decant the culture medium, 40 μL of the substrate coelenterazine 400a (final concentration of 5 μM) was added to each well, and then 20 μL of different drugs were added sequentially from left to right to ensure that the final concentration of the drug decreased gradually from bottom to top, with two replicates per treatment. Finally, the prepared samples were loaded on machine for test. The machine readout value reflected the recruitment of β-arrestin2 to the membrane or the dissociation of G protein trimer. The former indicated the degree of activation of the β-arrestin2 signaling pathway downstream of the dopamine D2 receptors, and the latter indicated the degree of activation of the G protein signaling pathway downstream of the dopamine D2 receptors.

Chain of 5-HT1A receptor (P08908 whole entry, the tested form may be a part): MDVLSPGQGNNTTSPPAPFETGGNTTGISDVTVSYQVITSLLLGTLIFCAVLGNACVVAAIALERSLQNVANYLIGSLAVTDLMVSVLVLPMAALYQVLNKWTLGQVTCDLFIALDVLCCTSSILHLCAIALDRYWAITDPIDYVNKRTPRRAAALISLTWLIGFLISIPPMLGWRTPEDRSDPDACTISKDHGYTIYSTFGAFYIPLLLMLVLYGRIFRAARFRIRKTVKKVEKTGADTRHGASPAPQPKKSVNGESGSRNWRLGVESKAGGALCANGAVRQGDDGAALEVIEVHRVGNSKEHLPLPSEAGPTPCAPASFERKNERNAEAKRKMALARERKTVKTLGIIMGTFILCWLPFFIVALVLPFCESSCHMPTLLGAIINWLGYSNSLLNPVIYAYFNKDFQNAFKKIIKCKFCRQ

## CN(C)C(=O)N[C@H]1CC[C@H](CCN2CCN3c4cccc5scc(c45)CC3C2)CC1 (single isomer, unassigned; (-)) [(−)-I-27]
[1]; (−)-I-27 0.025 mg/kg i.p.
  Immobility time (seconds), forced swimming test: 91.83 ± 6.80 s
[1]; (−)-I-27 0.1 mg/kg i.p.
  Immobility time (seconds), forced swimming test: 56.89 ± 4.80 s
[2]
  pKi: 7.10
[3]
  β-arrestin2 BRET (Emax %): (54.79%)
[3]; read-out: β-arrestin2 BRET EC50
  pEC50: 7.97
